Test results: patent publication US20120270917A1 (The Trustees of the University of Pennsylvania, priority 2009, published 2012)
Structures can show the parent of a compound that is named as a salt. Where two headings read alike, the source gives them in different places.

Molecular target: T1, AM2 (Influenza A virus, UniProt P0DOF5)
T1 construct: expressed in transfected cells
Experiment: cell-based
Conditions: for AM2 % inhibition at μM: concentration not given; for AM2 % inhibition at μM / IC50: Table 2

[1] = Oocytes, 100 μM, 2 min, mean ± SE, read-out: AM2 wt % of inhibition by 100 μM 2 min
[2] = read-out: AM2 % inhibition at 100 uM, 100 uM, Table 1

T1 sequence (P0DOF5 whole entry): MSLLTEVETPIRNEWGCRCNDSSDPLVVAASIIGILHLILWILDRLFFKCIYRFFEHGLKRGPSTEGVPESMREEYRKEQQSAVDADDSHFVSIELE

| SMILES | inhibition at 100 µM [2] [%] | AM2 % inhibition at μM [%] | further results |
| --- | --- | --- | --- |
| NC12CC3CC(CC(C3)C1)C2 [Amantadine, reference compound] |  |  | inhibition at 100 µM [1]: 90.8 ± 2.5% |
| NC12CC3CC(C1)CC(O)(C3)C2 [Compound 38] | 87 |  |  |
| N=C(N)NC12CC3CC(CC(C3)C1)C2 [Compound 39, 1-(adamantyl)guanidine] | 97 |  |  |
| CC(NC(=N)N)C12CC3CC(CC(C3)C1)C2 (stereo not drawn) [Compound 40] | 94 |  |  |
| Cl.Cl.N=C(N)NC(=N)NC12CC3CC(CC(C3)C1)C2 [Compound 41] | 70 |  |  |
| NOC12CC3CC(CC(C3)C1)C2 [Compound 42, O-adamantylhydroxylamine] | 87 |  |  |
| Cc1nc[nH]c1/C=N/OC12CC3CC(CC(C3)C1)C2 [Compound 43, 5-Methyl-3H-imidazole-4-carbaldehyde O-adamantan-1-yl-oxime] | 81 |  |  |
| N=C(N)C12CC3CC(CC(C3)C1)C2 [Compound 44, Adamantane amidine hydrochloride] | 70 |  |  |
| NC1CSC2(SC1)C1CC3CC(C1)CC2C3 (stereo not drawn) [Compound 45] | 64 |  |  |
| N=C(NO)C12CC3CC(CC(C3)C1)C2 [Compound 46, N-hydroxyadamantanecarboximidamide] | 72.3 |  |  |
| C1NC2CC3CC1CC(C3)C2.Cl [Compound 47, 4-Azatricyclo[4.3.1.1^3,8]undecan hydrochloride] | 83.8 |  |  |
| NC(=O)C12CC3CC(CC(C3)C1)C2 [Compound 48] | 74.9 |  |  |
| O=CC12CC3CC(CC(C3)C1)C2 [Compound 49, 1-adamantanecarboaldehyde] | 65.1 |  |  |
| O=C1C2CC3CC(C2)CC1C3 [Compound 50] | 69.6 |  |  |
| O=C1C2CC3CC1CC(C2)C3=O [Compound 52, 2,6-diadamantone] | 59.1 |  |  |
| OC1(C(F)(F)F)C2CC3CC(C2)CC1C3 (stereo not drawn) [Compound 53, 2-trifluoromethyl-2-adamantol] | 82.9 |  |  |
| O=[N+]([O-])C12CC3CC(CC(C3)C1)C2 [Compound 54, 1-nitroadamantane] | 87.2 |  |  |
| Cl.NC1C[C@@H]2C[C@@H]3CC1[C@H](C2)C3 (stereo partly drawn) [Compound S1, (2S,3aS,5R)-octahydro-1H-2,5-methanoinden-7-aminium chloride] |  | 94.2 |  |
| Cl.NC12CC3CCC(CC(C3)C1)C2 [Compound S2, tricyclo[4.3.1.13,8]undecan-1-aminium chloride] |  | 81.3 |  |
| O=[N+]([O-])C1C2CC3CC(C2)CC1C3 (stereo not drawn) [Compound S3] |  | 85.6 |  |
| CC1(O)C2CC3CC(C2)CC1C3 (stereo not drawn) [Compound S4] |  | 85.8 |  |
| CC1(N)C2CC3CC(C2)CC1C3 (stereo not drawn) [Compound S5] |  | 65.0 |  |
| NC1(C(F)(F)F)C2CC3CC(C2)CC1C3 (stereo not drawn) [Compound S6] |  | 86.3 | IC50: 10.1 µM |
| NS(=O)(=O)NC1C2CC3CC(C2)CC1C3 (stereo not drawn) [Compound S7] |  | 81.6 |  |
| OC1(C(F)(F)F)C2CC3CC(C2)CC1C3 (stereo not drawn) [Compound S8] |  | 82.9 | IC50: 13.8 µM |
| O=[N+]([O-])C12CC3CC(CC(C3)C1)C2 [Compound S9] |  | 87.2 |  |
| Cl.NC12CCC3CC(CC(C3)C1)C2 [Compound S12] |  | 92 |  |
| O=C1C2CC3CC(C2)CC1C3 [Compound S13] |  | 69.6 | IC50: 28.8 µM |
| Cl.NC1CCC2(CC1)C1CC3CC(C1)CC2C3 (stereo not drawn) [Compound S15, (1r, 3r,5r,7r)-spiro[adamantane-2,1′-cyclohexan]-4′-aminium chloride] |  |  | inhibition at 100 µM [1]: 89.1 ± 1.3% |
| CC(N)C12CC3CC(CC(C3)C1)C2 (stereo not drawn) [Rimantadine, reference compound] |  |  | inhibition at 100 µM [1]: 91.2 ± 0.9% |
